Results reported in US4436751A, “Nitrobenzyl monates antibacterial compounds” (Beecham Group Limited, priority 1980, dated 1984).
Converted amounts (≈) assume the structure as drawn. Read-outs that look alike come from different tables or passages of the source.

How the values were obtained:
Type in all cases: cell-based
M. suipneumoniae HR(2) = assay: Anti-mycoplasmal MIC in vitro, Friis broth agarose (Table 1); details: Mesomycoplasma hyopneumoniae, 144 h
[1] = system: M. suipneumoniae J2206/183b; assay: as above; details: Mesomycoplasma hyopneumoniae, 144 h
M. suipneumoniae MS 16 = assay: as above; details: Mesomycoplasma hyopneumoniae, MS16, 144 h
M. suipneumoniae LABER = assay: as above; details: Mesomycoplasma hyopneumoniae, 144 h
[2] = system: M. suipneumoniae NCTC 10110; assay: as above; details: Mesomycoplasma hyopneumoniae, NCTC10110, 144 h
M. hyorhinis ATCC 23234 = assay: as above; details: Mesomycoplasma hyorhinis, ATCC23234, 144 h
M. hyorhinis ATCC 25021 = assay: as above; details: Mesomycoplasma hyorhinis, ATCC25021, 144 h
M. gallisepticum S6 = assay: as above; details: Mycoplasmoides gallisepticum
Bord. bronchiseptica BO8 = assay: Veterinary bacteria MIC, Diagnostic Sensitivity Test Agar (Table 2); details: Bordetella bronchiseptica
Procedure: (§1) The values were determined using a two fold serial dilutions in Diagnostic Sensitivity Test Agar with an inoculum of 10^4 organisms and incubation for 18 hours at 37° C.

Bord. bronchiseptica BO9 = assay: as above; details: Bordetella bronchiseptica
Procedure: as §1

[3] = system: Corynebacterium pyogenes CY1; assay: as above; details: Trueperella pyogenes
Procedure: as §1

E. Coli E1 = assay: as above; details: Escherichia coli
Procedure: as §1

Past. haemolytica PA5 = assay: as above; details: Mannheimia haemolytica; Past. haemolytica PA5; DST Agar, 10^4 organisms, 18 hours 37° C.; read-out: MIC
Procedure: as §1

Past. multocida PA1 = assay: as above; details: Pasteurella multocida; Past. multocida PA1; DST Agar, 10^4 organisms, 18 hours 37° C.; read-out: MIC
Procedure: as §1

Past. multocida PA2 = assay: as above; details: Pasteurella multocida; Past. multocida PA2; DST Agar, 10^4 organisms, 18 hours 37° C.; read-out: MIC
Procedure: as §1

S. dublin S7 = assay: as above; details: Salmonella enterica
Procedure: as §1

S. typhimurium S18 = assay: as above; details: Salmonella enterica
Procedure: as §1

Staph. aureus 152 = assay: as above; details: Staphylococcus aureus; Staph. aureus 152; DST Agar, 10^4 organisms, 18 hours 37° C.; read-out: MIC
Procedure: as §1

Staph. aureus Oxford = assay: as above; details: Staphylococcus aureus; Staph. aureus Oxford; DST Agar, 10^4 organisms, 18 hours 37° C.; read-out: MIC
Procedure: as §1

Strep. agalactiae SPA1 = assay: as above; details: Streptococcus agalactiae; Strep. agalactiae SPA1; DST Agar, 10^4 organisms, 18 hours 37° C.; read-out: MIC
Procedure: as §1

Strep. dylgalactiae SPD1 = assay: as above; details: Strep. dylgalactiae SPD1; DST Agar, 10^4 organisms, 18 hours 37° C.; read-out: MIC
Procedure: as §1

[4] = system: Strep. suis (group D) SPS11; assay: as above; details: Streptococcus suis; Strep. suis (group D) SPS11; DST Agar, 10^4 organisms, 18 hours 37° C.; read-out: MIC
Procedure: as §1

Strep. uberis SPO1 = assay: as above; details: Streptococcus uberis; Strep. uberis SPO1; DST Agar, 10^4 organisms, 18 hours 37° C.; read-out: MIC
Procedure: as §1

E. coli ESS = assay: Human bacteria MIC, nutrient agar with chocolated horse blood (Table 3); details: Escherichia coli; E. coli ESS; nutrient agar 5% chocolated horse blood, 18 hours 37° C.; read-out: MIC
Procedure: (§2) The values were determined by serial dilutions in nutrient agar with 5% chocolated horse blood after incubations for 18 hours at 37° C.

[5] = system: Neisseria catarrhalis 1502; assay: as above
Procedure: as §2

Strep. 641848-C = assay: as above
Procedure: as §2

Strep. 2733-B = assay: as above; details: 18 h
Procedure: as §2

[6] = Bord. bronchiseptica BO8, DST Agar, 10^4 organisms, 18 hours 37° C., read-out: MIC
[7] = Bord. bronchiseptica BO9, DST Agar, 10^4 organisms, 18 hours 37° C., read-out: MIC
[8] = Corynebacterium pyogenes CY1, DST Agar, 10^4 organisms, 18 hours 37° C., read-out: MIC
[9] = E. Coli E1, DST Agar, 10^4 organisms, 18 hours 37° C., read-out: MIC
[10] = S. dublin S7, DST Agar, 10^4 organisms, 18 hours 37° C., read-out: MIC
[11] = S. typhimurium S18, DST Agar, 10^4 organisms, 18 hours 37° C., read-out: MIC
[12] = Neisseria catarrhalis 1502, nutrient agar 5% chocolated horse blood, 18 hours 37° C., read-out: MIC

C/C(=C\C(=O)OC(C)c1cccc([N+](=O)[O-])c1)CC1OCC(CC2OC2C(C)C(C)O)C(O)C1O (stereo not drawn) [Example 3, 1-(m-nitrophenyl)ethyl monate A]
MIC (M. suipneumoniae HR(2); M. suipneumoniae HR(2), in vitro, 6 days 37° C., read-out: MIC): 0.25 µg/mL (≈ 0.507 µM)
MIC ([1]; M. suipneumoniae J2206/183b, in vitro, 6 days 37° C., read-out: MIC): 0.25 µg/mL (≈ 0.507 µM)
MIC (M. suipneumoniae MS 16; M. suipneumoniae MS 16, in vitro, 6 days 37° C., read-out: MIC): 0.1 µg/mL (≈ 0.203 µM)
MIC (M. suipneumoniae LABER; M. suipneumoniae LABER, in vitro, 6 days 37° C., read-out: MIC): 0.1 µg/mL (≈ 0.203 µM)
MIC ([2]; M. suipneumoniae NCTC 10110, in vitro, 6 days 37° C., read-out: MIC): 0.25 µg/mL (≈ 0.507 µM)
MIC (M. hyorhinis ATCC 23234; M. hyorhinis ATCC 23234, in vitro, 6 days 37° C., read-out: MIC): 0.1 µg/mL (≈ 0.203 µM)
MIC (M. hyorhinis ATCC 25021; M. hyorhinis ATCC 25021, in vitro, 6 days 37° C., read-out: MIC): 0.1 µg/mL (≈ 0.203 µM)
MIC (M. gallisepticum S6; 144 h, M. gallisepticum S6, in vitro, 6 days 37° C., read-out: MIC): > 10 µg/mL
MIC (Bord. bronchiseptica BO8; [6]): > 80 µg/mL
MIC (Bord. bronchiseptica BO9; [7]): 80 µg/mL (≈ 162 µM)
MIC [3, 8]: > 80 µg/mL
MIC (E. Coli E1; [9]): > 80 µg/mL
MIC (Past. haemolytica PA5): 40 µg/mL (≈ 81 µM)
MIC (Past. multocida PA1): 20 µg/mL (≈ 40.5 µM)
MIC (Past. multocida PA2): 2.5 µg/mL (≈ 5.07 µM)
MIC (S. dublin S7; [10]): > 80 µg/mL
MIC (S. typhimurium S18; [11]): > 80 µg/mL
MIC (Staph. aureus 152): 2.5 µg/mL (≈ 5.07 µM)
MIC (Staph. aureus Oxford): 2.5 µg/mL (≈ 5.07 µM)
MIC (Strep. agalactiae SPA1): 2.5 µg/mL (≈ 5.07 µM)
MIC (Strep. dylgalactiae SPD1): 1.25 µg/mL (≈ 2.53 µM)
MIC [4]: 40 µg/mL (≈ 81 µM)
MIC (Strep. uberis SPO1): 0.312 µg/mL (≈ 0.632 µM)
MIC (E. coli ESS): 10 µg/mL (≈ 20.3 µM)
MIC ([5]; Neisseria, 1502, 18 h): 1 µg/mL (≈ 2.03 µM)
MIC (Strep. 641848-C; Strep. 641848-C, nutrient agar 5% chocolated horse blood, 18 hours 37° C., read-out: MIC): 2.5 µg/mL (≈ 5.07 µM)

C/C(=C\C(=O)OCc1ccccc1[N+](=O)[O-])CC1OCC(CC2OC2C(C)C(C)O)C(O)C1O (stereo not drawn) [C, O--nitrobenzyl monate A, reference compound]
MIC (M. suipneumoniae HR(2)): 0.5 µg/mL (≈ 1.04 µM)
MIC ([1]; J2206/183B): 0.5 µg/mL (≈ 1.04 µM)
MIC (M. suipneumoniae MS 16): 0.25 µg/mL (≈ 0.521 µM)
MIC (M. suipneumoniae LABER): 0.25 µg/mL (≈ 0.521 µM)
MIC [2]: 0.5 µg/mL (≈ 1.04 µM)
MIC (M. hyorhinis ATCC 23234): 0.25 µg/mL (≈ 0.521 µM)
MIC (M. hyorhinis ATCC 25021): 0.25 µg/mL (≈ 0.521 µM)
MIC (M. gallisepticum S6; S6, 144 h): 5 µg/mL (≈ 10.4 µM)
MIC (Bord. bronchiseptica BO8; BO8, 18 h): 80 µg/mL (≈ 167 µM)
MIC (Bord. bronchiseptica BO9; BO9, 18 h): 10 µg/mL (≈ 20.9 µM)
MIC ([3]; CY1, 18 h): > 80 µg/mL
MIC (E. Coli E1; 18 h): > 80 µg/mL
MIC (Past. haemolytica PA5): 10 µg/mL (≈ 20.9 µM)
MIC (Past. multocida PA1): 2.5 µg/mL (≈ 5.21 µM)
MIC (Past. multocida PA2): 1.25 µg/mL (≈ 2.61 µM)
MIC (S. dublin S7; S7, 18 h): > 80 µg/mL
MIC (S. typhimurium S18; TYPHIMURIUM, 18 h): > 80 µg/mL
MIC (Staph. aureus 152): 0.625 µg/mL (≈ 1.3 µM)
MIC (Staph. aureus Oxford): 0.625 µg/mL (≈ 1.3 µM)
MIC (Strep. agalactiae SPA1): 2.5 µg/mL (≈ 5.21 µM)
MIC (Strep. dylgalactiae SPD1): 0.625 µg/mL (≈ 1.3 µM)
MIC [4]: 20 µg/mL (≈ 41.7 µM)
MIC (Strep. uberis SPO1): 0.07 µg/mL (≈ 0.146 µM)
MIC (E. coli ESS): 2.5 µg/mL (≈ 5.21 µM)
MIC [5, 12]: 1 µg/mL (≈ 2.09 µM)
MIC (Strep. 2733-B): 2.5 µg/mL (≈ 5.21 µM)

C/C(=C\C(=O)OCc1cccc([N+](=O)[O-])c1)CC1OCC(C/C=C/C(C)C(C)O)C(O)C1O (stereo not drawn) [Example 5, m-nitrobenzyl monate C]
MIC (M. suipneumoniae HR(2)): 0.25 µg/mL (≈ 0.539 µM)
MIC ([1]; J2206/183B): 0.25 µg/mL (≈ 0.539 µM)
MIC (M. suipneumoniae MS 16): 0.1 µg/mL (≈ 0.216 µM)
MIC (M. suipneumoniae LABER): 0.1 µg/mL (≈ 0.216 µM)
MIC [2]: 0.25 µg/mL (≈ 0.539 µM)
MIC (M. hyorhinis ATCC 23234): 0.25 µg/mL (≈ 0.539 µM)
MIC (M. hyorhinis ATCC 25021): 0.25 µg/mL (≈ 0.539 µM)
MIC (M. gallisepticum S6; S6, 144 h): 5 µg/mL (≈ 10.8 µM)
MIC (Bord. bronchiseptica BO8; [6]): > 80 µg/mL
MIC (Bord. bronchiseptica BO9; [7]): 40 µg/mL (≈ 86.3 µM)
MIC [3, 8]: > 80 µg/mL
MIC (E. Coli E1; [9]): > 80 µg/mL
MIC (Past. haemolytica PA5): 40 µg/mL (≈ 86.3 µM)
MIC (Past. multocida PA1): 10 µg/mL (≈ 21.6 µM)
MIC (Past. multocida PA2): 2.5 µg/mL (≈ 5.39 µM)
MIC (S. dublin S7; [10]): > 80 µg/mL
MIC (S. typhimurium S18; [11]): > 80 µg/mL
MIC (Staph. aureus 152): 2.5 µg/mL (≈ 5.39 µM)
MIC (Staph. aureus Oxford): 2.5 µg/mL (≈ 5.39 µM)
MIC (Strep. agalactiae SPA1): 2.5 µg/mL (≈ 5.39 µM)
MIC (Strep. dylgalactiae SPD1): 1.25 µg/mL (≈ 2.7 µM)
MIC [4]: 80 µg/mL (≈ 173 µM)
MIC (Strep. uberis SPO1): 0.625 µg/mL (≈ 1.35 µM)
MIC (E. coli ESS): 10 µg/mL (≈ 21.6 µM)
MIC [5, 12]: 1 µg/mL (≈ 2.16 µM)
MIC (Strep. 641848-C; 18 h): 5 µg/mL (≈ 10.8 µM)
